PubChem BioAssay AID1963836 (Molecular Pharmacology Branch, DTP, NCI, 2024)

System: 857933-349-R-J2-PDC complex spheroid viability
Assay: Anticancer human tumor 857933-349-R-J2-PDC patient-derived colon adenocarcinoma cell line growth inhibition [POLQ]
Settings: for IC50: curve of first compound; for viability, T/C: stronger effect = lower value; active = viability on the fitted dose curve at most 10% of control; inactive = the rest
In short: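 Three-cell-type spheroids modelling solid tumor plus stroma served as the readout system; POL inhibitors were tested individually and in combination, concentration ranges set by clinical Cmax where known.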

[1] = second compound 0.0316 µM, first compound 0.0316 µM
[2] = second compound 0.0316 µM, first compound 0.1 µM
[3] = second compound 0.0316 µM, first compound 0.316 µM
[4] = second compound 0.0316 µM, first compound 1 µM
[5] = second compound 0.0316 µM, first compound 3.16 µM
[6] = second compound 0.0316 µM, first compound 10 µM
[7] = second compound 0.1 µM, first compound 0.0316 µM
[8] = second compound 0.1 µM, first compound 0.1 µM
[9] = second compound 0.1 µM, first compound 0.316 µM
[10] = second compound 0.1 µM, first compound 1 µM
[11] = second compound 0.1 µM, first compound 3.16 µM
[12] = second compound 0.1 µM, first compound 10 µM
[13] = second compound 0.316 µM, first compound 0.0316 µM
[14] = second compound 0.316 µM, first compound 0.1 µM
[15] = second compound 0.316 µM, first compound 0.316 µM
[16] = second compound 0.316 µM, first compound 1 µM
[17] = second compound 0.316 µM, first compound 3.16 µM
[18] = second compound 0.316 µM, first compound 10 µM
[19] = second compound 1 µM, first compound 0.0316 µM
[20] = second compound 1 µM, first compound 0.1 µM
[21] = second compound 1 µM, first compound 0.316 µM
[22] = second compound 1 µM, first compound 1 µM
[23] = second compound 1 µM, first compound 3.16 µM
[24] = second compound 1 µM, first compound 10 µM
[25] = second compound 3.16 µM, first compound 0.0316 µM
[26] = second compound 3.16 µM, first compound 0.1 µM
[27] = second compound 3.16 µM, first compound 0.316 µM
[28] = second compound 3.16 µM, first compound 1 µM
[29] = second compound 3.16 µM, first compound 3.16 µM
[30] = second compound 3.16 µM, first compound 10 µM
[31] = second compound 10 µM, first compound 0.0316 µM
[32] = second compound 10 µM, first compound 0.1 µM
[33] = second compound 10 µM, first compound 0.316 µM
[34] = second compound 10 µM, first compound 1 µM
[35] = second compound 10 µM, first compound 3.16 µM
[36] = second compound 10 µM, first compound 10 µM
[37] = second compound 0.0316 µM, first compound 0.00316 µM
[38] = second compound 0.0316 µM, first compound 0.01 µM
[39] = second compound 0.1 µM, first compound 0.00316 µM
[40] = second compound 0.1 µM, first compound 0.01 µM
[41] = second compound 0.316 µM, first compound 0.00316 µM
[42] = second compound 0.316 µM, first compound 0.01 µM
[43] = second compound 1 µM, first compound 0.00316 µM
[44] = second compound 1 µM, first compound 0.01 µM
[45] = second compound 3.16 µM, first compound 0.00316 µM
[46] = second compound 3.16 µM, first compound 0.01 µM
[47] = second compound 10 µM, first compound 0.00316 µM
[48] = second compound 10 µM, first compound 0.01 µM
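Note: spheroids exposed to compounds for seven days before readout.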

CCCS(=O)(=O)Nc1ccc(F)c(C(=O)c2c[nH]c3ncc(-c4ccc(Cl)cc4)cc23)c1F + Cc1cccc(N(C)C(=O)C2C(O)CCN2c2nc(C)cc(C(F)(F)F)c2C#N)c1
6.8 µM: IC50 (second compound 0.316 µM)
inactive: viability, T/C [1] 87.7% | viability, T/C [2] 104% | viability, T/C [3] 97% | viability, T/C [4] 99.3% | viability, T/C [5] 98.8% | viability, T/C [6] 28.1% | viability, T/C [7] 106% | viability, T/C [8] 105% | viability, T/C [9] 93.6% | viability, T/C [10] 94.5% | viability, T/C [11] 98.7% | viability, T/C [12] 19.1% | viability, T/C [13] 107% | viability, T/C [14] 99.6% | viability, T/C [15] 93.2% | viability, T/C [16] 95.5% | viability, T/C [17] 109% | viability, T/C [18] 24.2% | viability, T/C [19] 95.6% | viability, T/C [20] 111% | viability, T/C [21] 99.5% | viability, T/C [22] 91.3% | viability, T/C [23] 103% | viability, T/C [24] 23.6% | viability, T/C [25] 92.1% | viability, T/C [26] 96% | viability, T/C [27] 82.2% | viability, T/C [28] 100% | viability, T/C [29] 102% | viability, T/C [30] 25.2% | viability, T/C [31] 115% | viability, T/C [32] 99% | viability, T/C [33] 97% | viability, T/C [34] 99.9% | viability, T/C [35] 96.5% | viability, T/C [36] 22.3%
6.4 µM: IC50 (second compound 0.1 µM)
6.51 µM: IC50 (second compound 10 µM)
6.62 µM: IC50 (second compound 3.16 µM)
6.73 µM: IC50 (second compound 1 µM)
6.96 µM: IC50 (second compound 0.0316 µM)

CNCc1ccc(-c2[nH]c3cc(F)cc4c3c2CCNC4=O)cc1 + Cc1cccc(N(C)C(=O)C2C(O)CCN2c2nc(C)cc(C(F)(F)F)c2C#N)c1
inactive: viability, T/C [1] 98.9% | viability, T/C [2] 111% | viability, T/C [3] 96.3% | viability, T/C [4] 99.2% | viability, T/C [5] 78.9% | viability, T/C [6] 99.7% | viability, T/C [7] 103% | viability, T/C [8] 90.7% | viability, T/C [9] 90.7% | viability, T/C [10] 76.4% | viability, T/C [11] 102% | viability, T/C [12] 104% | viability, T/C [13] 97.3% | viability, T/C [14] 104% | viability, T/C [15] 108% | viability, T/C [16] 95.5% | viability, T/C [17] 103% | viability, T/C [18] 89.5% | viability, T/C [19] 120% | viability, T/C [20] 98.5% | viability, T/C [21] 90.7% | viability, T/C [22] 86.5% | viability, T/C [23] 104% | viability, T/C [24] 79.3% | viability, T/C [25] 88.7% | viability, T/C [26] 112% | viability, T/C [27] 95.7% | viability, T/C [28] 105% | viability, T/C [29] 95.4% | viability, T/C [30] 80.5% | viability, T/C [31] 102% | viability, T/C [32] 106% | viability, T/C [33] 117% | viability, T/C [34] 68.4% | viability, T/C [35] 116% | viability, T/C [36] 86.3%
> 10 µM: IC50 (second compound 0.0316 µM) | IC50 (second compound 0.1 µM) | IC50 (second compound 0.316 µM) | IC50 (second compound 1 µM) | IC50 (second compound 3.16 µM) | IC50 (second compound 10 µM)

COc1cccc(OCCCN)c1-c1cc(Nc2cnc(C#N)cn2)n[nH]1 + Cc1cccc(N(C)C(=O)C2C(O)CCN2c2nc(C)cc(C(F)(F)F)c2C#N)c1
0.511 µM: IC50 (second compound 3.16 µM)
inactive: viability, T/C [37] 96.2% | viability, T/C [38] 94.5% | viability, T/C [1] 97% | viability, T/C [2] 86.9% | viability, T/C [3] 64.6% | viability, T/C [4] 45.5% | viability, T/C [39] 105% | viability, T/C [40] 84.2% | viability, T/C [7] 89.2% | viability, T/C [8] 73% | viability, T/C [9] 66.3% | viability, T/C [10] 50.7% | viability, T/C [41] 102% | viability, T/C [42] 99.8% | viability, T/C [13] 90.9% | viability, T/C [14] 56.8% | viability, T/C [15] 61% | viability, T/C [16] 55.5% | viability, T/C [43] 110% | viability, T/C [44] 96.3% | viability, T/C [19] 85.6% | viability, T/C [20] 83% | viability, T/C [21] 56.4% | viability, T/C [22] 52.9% | viability, T/C [45] 98.7% | viability, T/C [46] 110% | viability, T/C [25] 81.8% | viability, T/C [26] 69.6% | viability, T/C [27] 59.9% | viability, T/C [28] 40.7% | viability, T/C [47] 90.8% | viability, T/C [48] 86.5% | viability, T/C [31] 77.4% | viability, T/C [32] 67.9% | viability, T/C [33] 61.2% | viability, T/C [34] 52.5%
0.763 µM: IC50 (second compound 0.0316 µM)
> 1 µM: IC50 (second compound 0.1 µM) | IC50 (second compound 0.316 µM) | IC50 (second compound 1 µM) | IC50 (second compound 10 µM)

Cn1ncnc1[C@H]1c2n[nH]c(=O)c3cc(F)cc(c23)N[C@@H]1c1ccc(F)cc1 + Cc1cccc(N(C)C(=O)C2C(O)CCN2c2nc(C)cc(C(F)(F)F)c2C#N)c1
inactive: viability, T/C (second compound 0.0316 µM, first compound 0.000316 µM) 101% | viability, T/C (second compound 0.0316 µM, first compound 0.001 µM) 115% | viability, T/C [37] 114% | viability, T/C [38] 125% | viability, T/C [1] 98.2% | viability, T/C [2] 97.3% | viability, T/C (second compound 0.1 µM, first compound 0.000316 µM) 110% | viability, T/C (second compound 0.1 µM, first compound 0.001 µM) 116% | viability, T/C [39] 120% | viability, T/C [40] 80% | viability, T/C [7] 101% | viability, T/C [8] 103% | viability, T/C (second compound 0.316 µM, first compound 0.000316 µM) 97.5% | viability, T/C (second compound 0.316 µM, first compound 0.001 µM) 102% | viability, T/C [41] 95.8% | viability, T/C [42] 86.2% | viability, T/C [13] 101% | viability, T/C [14] 99.8% | viability, T/C (second compound 1 µM, first compound 0.000316 µM) 85.1% | viability, T/C (second compound 1 µM, first compound 0.001 µM) 96.5% | viability, T/C [43] 80.9% | viability, T/C [44] 82% | viability, T/C [19] 103% | viability, T/C [20] 95.2% | viability, T/C (second compound 3.16 µM, first compound 0.000316 µM) 96.4% | viability, T/C (second compound 3.16 µM, first compound 0.001 µM) 116% | viability, T/C [45] 92.7% | viability, T/C [46] 108% | viability, T/C [25] 96.2% | viability, T/C [26] 97.1% | viability, T/C (second compound 10 µM, first compound 0.000316 µM) 91% | viability, T/C (second compound 10 µM, first compound 0.001 µM) 115% | viability, T/C [47] 108% | viability, T/C [48] 112% | viability, T/C [31] 110% | viability, T/C [32] 104%
> 0.1 µM: IC50 (second compound 0.0316 µM) | IC50 (second compound 0.1 µM) | IC50 (second compound 0.316 µM) | IC50 (second compound 1 µM) | IC50 (second compound 3.16 µM) | IC50 (second compound 10 µM)
